# Test results as given in patent publication US9085527B2, “Fatty acid acylated salicylates and their uses” (Catabasis Pharmaceuticals, Inc., priority 2008, dated 2015).
# Tested on: NFκB
# Assay: NFκB-driven luciferase reporter in RAW 264.7 cells challenged with LPS
# Format: cell-based, mouse
# Conditions: Mus musculus, RAW264.7, 200 ng/mL LPS for 3 hours, read-out: NFκB Inhibitory Activity, IC50 μM
# Experimental: RAW 264.7 cells transfected with an NFκB-driven luciferase reporter are plated in 96 well plates. Cells are treated with Vehicle (0.1% ethanol) or test compounds for 2 hours. As a positive control for inhibition of NFκB signaling, 6 wells are treated with 10 μM dexamethasone. Cells are then challenged with 200 ng/mL LPS for 3 hours in the presence of test compounds. A subset of wells treated with vehicle should remain unstimulated with LPS to determine the floor signal of the assay. NFκB driven luciferase activity is developed by addition of BriteLite luciferase kit (Perkin-Elmer) and measured using a Victor V plate reader. NFκB activity (luciferase activity) for each treatment was normalized to Vehicle wells treated with LPS (% NFκB Response). AlamarBlue was used to monitor cell viability to ensure that inhibition of luciferase signal was not a result of compound cytotoxicity.
# RAW 264.7 cells stably expressing a 3×NF-κB response element-driven luciferase reporter were seeded into 96 well plates. After 18 hours, cells were pre-treated with compounds of the invention for 2 hours, and then stimulated with LPS (lipopolysaccharide, 200 ng/mL) or vehicle control for 3 h in the presence of the compounds of the invention. A set of six vehicle was left unstimulated with LPS in order to measure the assay floor. AlamarBlue viability dye (Invitrogen) was added to cells simultaneously with the delivery of LPS (final AlamarBlue concentration of 10%). After the 3 h incubation period with LPS, cell viability was measured by reading fluorescence (excitation 550 nm, emission 595 nm) with a Perkin Elmer Victor V plate reader. Then cell media was aspirated from each well. Luciferase signal was then developed by addition of the Britelite Plus reagent (Perkin Elmer). Luciferase activity was measured with the Perkin Elmer Victor V plate reader. NF-κB activity was expressed as a percent of the vehicle control wells (stimulated with LPS). Compounds were tested at 6 dose point titrations in triplicate to determine IC50 values.
row,SMILES,IC50 [µM]
1,"CC/C=C\C/C=C\C/C=C\C/C=C\C/C=C\CCCC(=O)Nc1ccc(O)c(C(=O)O)c1 [IIIg-1, 2-hydroxy-5-(5Z,8Z,11Z,14Z,17Z)-icosa-5,8,11,14,17-pentaenamidobenzoic acid]",< 200
2,"CC/C=C\C/C=C\C/C=C\C/C=C\C/C=C\C/C=C\CCC(=O)NC(Cc1ccccc1)C(=O)Nc1ccc(O)c(C(=O)O)c1 (centres unmarked) [IIIf-2, 5-(2-(4Z,7Z,10Z,13Z,16Z,19Z)-docosa-4,7,10,13,16,19-hexaenamido-3-phenylpropanamido)-2-hydroxybenzoic acid]",> 200
3,"CC/C=C\C/C=C\C/C=C\C/C=C\C/C=C\C/C=C\CCC(=O)NC(CC(C)C)C(=O)Nc1ccc(O)c(C(=O)O)c1 (centres unmarked) [III-6, 5-(2-(4Z,7Z,10Z,13Z,16Z,19Z)-docosa-4,7,10,13,16,19-hexaenamido-4-methylpentanamido)-2-hydroxybenzoic acid]",< 200
4,"CC/C=C\C/C=C\C/C=C\C/C=C\C/C=C\C/C=C\CCC(=O)Oc1ccc(-c2ccc(F)cc2F)cc1C(=O)OCC [IVc-2, ethyl 4-((4Z,7Z,10Z,13Z,16Z,19Z)-docosa-4,7,10,13,16,19-hexaenoyloxy)-2′,4′-difluorobiphenyl-3-carboxylate]",< 200
5,"Nc1ccc(O)c(C(=O)O)c1 [Compound 5-ASA, 5-aminosalicylic acid, reference compound]",> 200
6,"O=C(O)c1ccccc1O [SA, salicylic acid, reference compound]",> 200
7,"CC/C=C\C/C=C\C/C=C\C/C=C\C/C=C\C/C=C\CCC(=O)NCCCOC(=O)c1ccccc1OC(C)=O [Ic-1, 3-(4Z,7Z,10Z,13Z,16Z,19Z)-docosa-4,7,10,13,16,19-hexaenamidopropyl 2-acetoxybenzoate]",> 200
8,"CC/C=C\C/C=C\C/C=C\C/C=C\C/C=C\C/C=C\CCC(=O)O [DHA, docosahexaenoic acid, reference compound]",> 200
9,"CC/C=C\C/C=C\C/C=C\C/C=C\C/C=C\C/C=C\CCC(=O)NC(CC(C)C)C(=O)Oc1ccc(-c2ccc(F)cc2F)cc1C(=O)OCC (centres unmarked) [Ii-4, ethyl 4-(2-(4Z,7Z,10Z,13Z,16Z,19Z)-docosa-4,7,10,13,16,19-hexaenamido-4-methylpentanoyloxy)-2′,4′-difluorobiphenyl-3-carboxylate]",> 200
10,"CC/C=C\C/C=C\C/C=C\C/C=C\C/C=C\C/C=C\CCC(=O)NC(CC(C)C)C(=O)Oc1ccccc1C(=O)OCC (centres unmarked) [Compound I-1, ethyl 2-(2-(4Z,7Z,10Z,13Z,16Z,19Z)-docosa-4,7,10,13,16,19-hexaenamido-4-methylpentanoyloxy)benzoate]",< 200
11,"CC/C=C\C/C=C\C/C=C\C/C=C\C/C=C\C/C=C\CCC(=O)OC(C)OC(=O)c1ccccc1OC(C)=O (centres unmarked) [Ic-12, 1-((4Z,7Z,10Z,13Z,16Z,19Z)-docosa-4,7,10,13,16,19-hexaenoyloxy)ethyl 2-acetoxybenzoate]",< 200
12,"CCCCC/C=C\C/C=C\C/C=C\C/C=C\CCCC(=O)Nc1ccc(O)c(C(=O)O)c1 [Compound 18, 2-hydroxy-5-(5Z,8Z,11Z,14Z)-icosa-5,8,11,14-tetraenamidobenzoic acid]",> 200
13,CC/C=C\C/C=C\C/C=C\C/C=C\C/C=C\CCCC(=O)NCCNC(=O)c1ccccc1O [Ih-14],< 200
14,"CC/C=C\C/C=C\C/C=C\C/C=C\C/C=C\C/C=C\CCC(=O)Oc1cc(C(F)(F)F)ccc1C(=O)OCC [VIc-3, ethyl 2-((4Z,7Z,10Z,13Z,16Z,19Z)-docosa-4,7,10,13,16,19-hexaenoyloxy)-4-(trilluoromethyl)benzoate]",< 200

# Other lines, results leading:
row,IC50 [µM],SMILES
1,< 200,"CC/C=C\C/C=C\C/C=C\C/C=C\C/C=C\C/C=C\CCC(=O)NC(C)C(C)NC(=O)c1ccccc1O (centres unmarked) [Ih-7, N-(3-(4Z,7Z,10Z,13Z,16Z,19Z)-docosa-4,7,10,13,16,19-hexaenamidobutan-2-yl)-2-hydroxybenzamide]"
2,> 200,"CC/C=C\C/C=C\C/C=C\C/C=C\C/C=C\C/C=C\CCC(=O)Oc1ccccc1C(=O)O [Ia-1, 2-((4Z,7Z,10Z,13Z,16Z,19Z)-docosa-4,7,10,13,16,19-hexaenoyloxy)benzoic acid]"
3,< 200,"CC/C=C\C/C=C\C/C=C\C/C=C\C/C=C\C/C=C\CCC(=O)N(C)CCNC(=O)c1ccccc1O [Ih-4, 2-hydroxy-N-(2-((4Z,7Z,10Z,13Z,16Z,19Z)—N-methyldocosa-4,7,10,13,16,19-hexaenamido)ethyl)benzamide]"
4,> 200,"CC/C=C\C/C=C\C/C=C\C/C=C\C/C=C\C/C=C\CCC(=O)NCC(=O)Nc1ccc(O)c(C(=O)O)c1 [IIIf-1, 5-(2-(4Z,7Z,10Z,13Z,16Z,19Z)-docosa-4,7,10,13,16,19-hexaenamidoacetamido)-2-hydroxybenzoic acid]"
5,> 200,"CC/C=C\C/C=C\C/C=C\C/C=C\C/C=C\C/C=C\CCC(=O)NCCNC(=O)c1ccc(C(F)(F)F)cc1O [Ih-8, N-(2-(4Z,7Z,10Z,13Z,16Z,19Z)-docosa-4,7,10,13,16,19-hexaenamidoethyl)-2-hydroxy-4-(trifluoromethyl)benzamide]"
6,< 200,"CC/C=C\C/C=C\C/C=C\C/C=C\C/C=C\C/C=C\CCC(=O)NCCNC(=O)c1ccccc1O [Ih-1, N-(2-(4Z,7Z,10Z,13Z,16Z,19Z)-docosa-4,7,10,13,16,19-hexaenamidoethyl)-2-hydroxybenzamide]"
7,< 200,"CC/C=C\C/C=C\C/C=C\C/C=C\C/C=C\C/C=C\CCC(=O)NCC(C)NC(=O)c1ccccc1O (centres unmarked) [Ih-5, N-(1-(4Z,7Z,10Z,13Z,16Z,19Z)-docosa-4,7,10,13,16,19-hexaenamidopropan-2-yl)-2-hydroxybenzamide]"
8,< 200,"CC/C=C\C/C=C\C/C=C\C/C=C\C/C=C\C/C=C\CCC(=O)NCCN1C(=O)CC(SC[C@H](NC(=O)c2ccccc2O)C(=O)OC)C1=O (stereo partly drawn) [Ih-11, (R)-methyl 3-(1-(2-(4Z,7Z,10Z,13Z,16Z,19Z)-docosa-4,7,10,13,16,19-hexaenamidoethyl)-2,5-dioxopyrrolidin-3-ylthio)-2-(2-hydroxybenzamido)propanoate]"
9,< 200,"CC/C=C\C/C=C\C/C=C\C/C=C\C/C=C\C/C=C\CCC(=O)Nc1cccc(C(=O)O)c1 [Compound 17, 3-(4Z,7Z,10Z,13Z,16Z,19Z)-docosa-4,7,10,13,16,19-hexaenamidobenzoic acid]"
10,< 200,"CC/C=C\C/C=C\C/C=C\C/C=C\C/C=C\C/C=C\CCC(=O)NCCOCCNC(=O)c1ccccc1O [Compound I-3, N-(2-(2-(4Z,7Z,10Z,13Z,16Z,19Z)-docosa-4,7,10,13,16,19-hexaenamidoethoxy)ethyl)-2-hydroxybenzamide]"
11,< 200,"CC/C=C\C/C=C\C/C=C\C/C=C\C/C=C\C/C=C\CCC(=O)NCCSSCCNC(=O)c1ccccc1O [Compound I-2, N-(2-(2-(2-(4Z,7Z,10Z,13Z,16Z,19Z)-docosa-4,7,10,13,16,19-hexaenamidoethyl)disulfanyl)ethyl)-2-hydroxybenzamide]"
12,< 200,"CC/C=C\C/C=C\C/C=C\C/C=C\C/C=C\C/C=C\CCC(=O)NCCN(C)C(=O)c1ccccc1O [Ih-3, N-(2-(4Z,7Z,10Z,13Z,16Z,19Z)-docosa-4,7,10,13,16,19-hexaenamidoethyl)-2-hydroxy-N-methylbenzamide]"
13,> 200,"CC/C=C\C/C=C\C/C=C\C/C=C\C/C=C\C/C=C\CCC(=O)N1CCN(C(=O)c2ccccc2O)CC1 [Ih-2, (4Z,7Z,10Z,13Z,16Z,19Z)-1-(4-(2-hydroxybenzoyl)piperazin-1-yl)docosa-4,7,10,13,16,19-hexaen-1-one]"
14,< 200,"CC/C=C\C/C=C\C/C=C\C/C=C\C/C=C\C/C=C\CCC(=O)NCC(C)(C)NC(=O)c1ccccc1O [Compound I-4, N-(1-(4Z,7Z,10Z,13Z,16Z,19Z)-docosa-4,7,10,13,16,19-hexaenamido-2-methylpropan-2-yl)-2-hydroxybenzamide]"
15,< 200,"CC/C=C\C/C=C\C/C=C\C/C=C\C/C=C\CCCC(=O)NCCNC(=O)c1cc(-c2ccc(F)cc2F)ccc1O [Ih-10, 2′,4′-difluoro-4-hydroxy-N-(2-(5Z,8Z,11Z,14Z,17Z)-icosa-5,8,11,14,17-pentaenamidoethyl)biphenyl-3-carboxamide]"
16,< 200,"CC/C=C\C/C=C\C/C=C\C/C=C\C/C=C\C/C=C\CCC(=O)NCCNC(=O)c1cc(-c2ccc(F)cc2F)ccc1O [Ih-9, N-(2-(4Z,7Z,10Z,13Z,16Z,19Z)-docosa-4,7,10,13,16,19-hexaenamidoethyl)-2′,4′-difluoro-4-hydroxybiphenyl-3-carboxamide]"
17,< 200,"CC/C=C\C/C=C\C/C=C\C/C=C\C/C=C\C/C=C\CCC(=O)NCCN(C)CCNC(=O)c1ccccc1O [Compound I-7, N-(2-((2-(4Z,7Z,10Z,13Z,16Z,19Z)-docosa-4,7,10,13,16,19-hexaenamidoethyl)(methyl)amino)ethyl)-2-hydroxybenzamide]"
18,< 200,"CC/C=C\C/C=C\C/C=C\C/C=C\C/C=C\C/C=C\CCC(=O)Nc1ccc(O)c(C(=O)OC)c1 [IIIb-1, methyl 5-docosa-4,7,10,13,16,19-hexaenamido-2-hydroxybenzoate]"
